From ChEMBL document CHEMBL1132834, “Phenylpropenamide derivatives as inhibitors of hepatitis B virus replication” (Bioorg Med Chem Lett, 2000)
pEC50: −log10 of the molar value.

How the values were obtained:
[1] = system: Human immunodeficiency virus 1; assay: Inhibition of HIV-1 replication by 50% (no effect at this concentration); format: functional, organism-based
[2] = Inhibition of Duck HBV replication by 50% (no effect at this concentration); format: functional, organism-based; details: Anas sp.
[3] = Inhibition of Woodchuck HBV replication by 50% (no effect at this concentration); format: functional, organism-based; details: Marmota monax
[4] = system: Human alphaherpesvirus 1; assay: Inhibition of HSV-1 replication by 50% (no effect at this concentration); format: functional, organism-based
[5] = Reduction of viable cell numbers by 50% was evaluated by HepAD38 cellular assay; format: ADME, cell-based; details: human, HepAD38 cells; read-out: TC50 (the source's name)
[6] = system: Vesicular stomatitis virus; assay: Inhibition of Vesicular stomatis virus replication by 50% (no effect at this concentration); format: functional, organism-based
[7] = system: Newcastle disease virus; assay: Inhibition of Newcastles disease virus replication by 50% (no effect at this concentration); format: functional, organism-based; details: avian paramyxovirus 1
[8] = (§1) Inhibition of hepatitis B virus replication in the HepAD38 cell line.; format: functional, cell-based; details: Homo sapiens
[9] = system: HepG2; assay: as §1; format: functional, cell-based; details: Homo sapiens
[10] = Concentration which inhibits hepatitis B virus replication in the HepAD38 cell line.; format: functional; details: Homo sapiens
[11] = system: HepG2; assay: The concentration of compound which inhibits hepatitis B virus replication in the HepAD38 cell line.; details: Homo sapiens

SMILES	pEC50 [1]	pEC50 [2]	pEC50 [3]	pEC50 [4]	CC50 [5]	pEC50 [6]	pEC50 [7]	pEC50 [8]	pEC50 [9]	EC90 [10]	EC90 [11]
O=C(N/C(C(=O)N1CCCCC1)=C(/Cl)c1ccc(Cl)cc1)c1ccccc1	< 4.09	< 4.09	< 4.09	< 4.09	45 µM	< 4.09	< 4.09				
O=C(N/C(C(=O)N1CCCCC1)=C(/Br)c1ccc(F)cc1)c1ccccc1	< 4.09	< 4.09	< 4.09	< 4.09	> 70 µM	< 4.09	< 4.09	5.41			
O=C(Nc1nccs1)/C(NC(=O)c1ccccc1)=C(\Cl)c1ccccc1									< 4.12		
O=C(N/C(C(=O)N1CCCCC1)=C(/Cl)c1ccccc1F)c1ccccc1	< 4.09	< 4.09	< 4.09	< 4.09	31 µM	< 4.09	< 4.09				
Cc1ccc(C(=O)N/C(C(=O)N2CCCCC2)=C(/Br)c2ccccc2)cc1	< 4.09	< 4.09	< 4.09	< 4.09	> 70 µM	< 4.09	< 4.09	5.68		12 µM	
COc1ccccc1/C(Br)=C(\NC(=O)c1ccc([N+](=O)[O-])cc1)C(=O)N1CCCCC1	< 4.09	< 4.09	< 4.09	< 4.09	> 61 µM	< 4.09	< 4.09	6.89		0.92 µM	
O=C(N/C(C(=O)N1CCCCC1)=C(/Br)c1ccccc1)c1ccc(C(F)(F)F)cc1	< 4.09	< 4.09	< 4.09	< 4.09	> 62 µM	< 4.09	< 4.09	5.30		34 µM	
O=C(N/C(C(=O)N1CCCCC1)=C(/Cl)c1ccc(F)cc1)c1ccccc1	< 4.09	< 4.09	< 4.09	< 4.09	> 75 µM	< 4.09	< 4.09	5.51		28 µM	
O=C(N/C(C(=O)N1CCCCC1)=C(/Br)c1ccccc1F)c1ccccc1	< 4.09	< 4.09	< 4.09	< 4.09	70 µM	< 4.09	< 4.09	5.82			
O=C(N/C(C(=O)N1CCCCCC1)=C(/Cl)c1ccccc1)c1ccccc1									< 4.12		
CCN(CC)C(=O)/C(NC(=O)c1ccccc1)=C(\Cl)c1ccccc1									< 4.12		
COc1ccc(C(=O)N/C(C(=O)N2CCCCC2)=C(/Br)c2ccccc2)cc1	< 4.09	< 4.09	< 4.09	< 4.09	> 67 µM	< 4.09	< 4.09	5.72		19 µM	
O=C(N/C(C(=O)N1CCCCC1)=C(/Br)c1ccc(Cl)cc1)c1ccccc1	< 4.09	< 4.09	< 4.09	< 4.09	55 µM	< 4.09	< 4.09	4.96			
O=C(NCc1ccccc1)/C(NC(=O)c1ccccc1)=C(\Cl)c1ccccc1									< 4.12		
O=C(N/C(C(=O)N1CCCCC1)=C(/Br)c1ccccc1F)c1ccc([N+](=O)[O-])cc1	< 4.09	< 4.09	< 4.09	< 4.09	42 µM	< 4.09	< 4.09	6.51		1.8 µM	
O=C(N/C(C(=O)N1CCCCC1)=C(/Br)c1ccccc1)c1ccccc1	< 4.09	< 4.09	< 4.09	< 4.09	> 72 µM	< 4.09	< 4.09	5.89		21 µM	
Cc1ccccc1/C(Br)=C(\NC(=O)c1ccc([N+](=O)[O-])cc1)C(=O)N1CCCCC1	< 4.09	< 4.09	< 4.09	< 4.09	> 63 µM	< 4.09	< 4.09	6.22		4.6 µM	
O=C(N/C(C(=O)N1CCCCC1)=C(/Cl)c1ccccc1)c1ccccc1	< 4.09	< 4.09	< 4.09	< 4.09	> 81 µM	< 4.09	< 4.09	5.92		13 µM	

SMILES	pEC50 [1]	pEC50 [2]	pEC50 [3]	pEC50 [4]	CC50 [5]	pEC50 [6]	pEC50 [7]	pEC50 [8]	pEC50 [9]	EC90 [10]	EC90 [11]
Cc1ccccc1/C(Br)=C(\NC(=O)c1ccccc1)C(=O)N1CCCCC1	< 4.09	< 4.09	< 4.09	< 4.09	> 70 µM	< 4.09	< 4.09	6.05			
O=C(N/C(C(=O)N1CCCCC1)=C(/Br)c1ccccc1)c1ccc(Br)cc1	< 4.09	< 4.09	< 4.09	< 4.09	> 61 µM	< 4.09	< 4.09	6.28		3.7 µM	
O=C(N/C(C(=O)N1CCCCC1)=C(/Br)c1ccc(Cl)cc1)c1ccc([N+](=O)[O-])cc1	< 4.09	< 4.09	< 4.09	< 4.09	> 60 µM	< 4.09	< 4.09	5.80			
COc1ccccc1/C(Br)=C(\NC(=O)c1ccccc1)C(=O)N1CCCCC1	< 4.09	< 4.09	< 4.09	< 4.09	> 70 µM	< 4.09	< 4.09	5.68			
Cc1ccc(/C(Br)=C(\NC(=O)c2ccccc2)C(=O)N2CCCCC2)cc1	< 4.09	< 4.09	< 4.09	< 4.09	> 70 µM	< 4.09	< 4.09	5.55			
O=C(N/C(C(=O)N1CCCC1)=C(/Cl)c1ccccc1)c1ccccc1									5.25		
O=C(N/C(C(=O)N1CCCCC1)=C(/Br)c1ccccc1)c1ccc([N+](=O)[O-])cc1	< 4.09	< 4.09	< 4.09	< 4.09	> 65 µM	< 4.09	< 4.09	6.46		3 µM	
COc1ccc(/C(Br)=C(\NC(=O)c2ccccc2)C(=O)N2CCCCC2)cc1	< 4.09	< 4.09	< 4.09	< 4.09	> 67 µM	< 4.09	< 4.09	4.89			
O=C(N/C(C(=O)N1CCCCC1)=C(/Br)c1ccccc1)c1ccc(F)cc1	< 4.09	< 4.09	< 4.09	< 4.09	> 69 µM	< 4.09	< 4.09	6.07		4.4 µM	
O=C(N/C(C(=O)N1CCCCC1)=C(/Br)c1ccc(F)cc1)c1ccc([N+](=O)[O-])cc1	< 4.09	< 4.09	< 4.09	< 4.09	> 63 µM	< 4.09	< 4.09	6.14		11 µM	
COc1ccc(C(=O)N/C(C(=O)N2CCCCC2)=C(/Cl)c2ccccc2)cc1	< 4.09	< 4.09	< 4.09	< 4.09	> 75 µM	< 4.09	< 4.09	5.28			
O=C(N/C(C(=O)N1CCOCC1)=C(/Cl)c1ccccc1)c1ccccc1									5.14		
COc1ccc(/C(Cl)=C(\NC(=O)c2ccccc2)C(=O)N2CCCCC2)cc1	< 4.09	< 4.09	< 4.09	< 4.09	> 75 µM	< 4.09	< 4.09	< 4.12			
O=C(N/C(C(=O)N1CCCCC1)=C(/Cl)c1ccccc1)c1ccc(F)cc1	< 4.09	< 4.09	< 4.09	< 4.09	> 67 µM	< 4.09	< 4.09	5.89		5.5 µM	
O=C(N/C(C(=O)N1CCCCC1)=C(/Br)c1ccccc1)c1ccc(Cl)cc1	< 4.09	< 4.09	< 4.09	< 4.09	> 67 µM	< 4.09	< 4.09	6.27		3.1 µM	
O=C(N/C(C(=O)N1CCCCCCC1)=C(/Cl)c1ccccc1)c1ccccc1									< 4.12		
O=C(N/C(C(=O)N1CCCCC1)=C(/Cl)c1ccccc1)c1ccc(C(F)(F)F)cc1	< 4.09	< 4.09	< 4.09	< 4.09	> 69 µM	< 4.09	< 4.09	< 4.16			
Nc1nc(=O)n([C@@H]2CS[C@H](CO)O2)cc1F [EMTRICITABINE]	< 4.09	< 4.09	< 4.09	< 4.09		< 4.09	< 4.09		7.52		0.3 µM
